Measured values reported in ChEMBL document CHEMBL4373743, “Selective apoptosis-inducing activity of synthetic hydrocarbon-stapled SOS1 helix with d-amino acids in H358 cancer cells expressing KRASG12C” (Eur J Med Chem, 2020).
The source made the active and inactive calls. No cut-off for these calls is given here. Bridge positions count the residues as written; N and C are the ends. Square brackets hold non-standard residues; d marks the D form. Peptide text beside a SMILES is read from it. S5 = C=CCCC[C@](C)(N)C(=O)O

Assays:
[1] = molecular target: GTPase KRas (Homo sapiens, UniProt P01116, G12C); test: Binding affinity to biotinylated N-terminal His6-tagged recombinant KRAS G12C mutant (unknown origin) by BLI method
[2] = tested on: GTPase KRas (Homo sapiens), P01116 [G12C]; test: Binding affinity to biotinylated N-terminal His6-tagged recombinant KRAS G12C mutant (unknown origin) assessed as association constant by BLI method
[3] = tested on: NCI-H358; test: Antiproliferative activity against human NCI-H358 cells harboring KRAS G12C mutant incubated for 24 hrs by MTT assay; assay type: functional, cell-based
[4] = tested on: A549; test: Antiproliferative activity against human A549 cells harboring KRAS G12S mutant at 0.37 to 10 uM incubated for 24 hrs by MTT assay; assay type: functional, cell-based
[5] = tested on: NCI-H358; test: Induction of cell cycle arrest in human NCI-H358 cells harboring KRAS G12C mutant assessed as accumulation at G2/M phase at 10 to 40 uM incubated for 24 hrs by PI staining based flow cytometric analysis (reference value: 11.08%); assay type: functional
[6] = tested on: A549; test: Induction of cell cycle arrest in human A549 cells harboring KRAS G12S mutant assessed as accumulation at G2/M phase at 10 to 40 uM incubated for 24 hrs by PI staining based flow cytometric analysis; assay type: functional
[7] = tested on: NCI-H358; test: Induction of cell cycle arrest in human NCI-H358 cells harboring KRAS G12C mutant assessed as reduction in CDK1 protein expression at 40 uM incubated for 24 hrs by Western blot analysis; assay type: functional, cell-based
[8] = tested on: NCI-H358; test: Induction of apoptosis in human NCI-H358 cells harboring KRAS G12C mutant assessed as viable cells at 2.5 uM incubated for 24 hrs by Annexin V-FITC/PI staining based flow cytometric analysis (reference value: 67.2%); assay type: functional; details: NCI-H358, 24 h, read-out: Activity
[9] = tested on: NCI-H358; test: Induction of apoptosis in human NCI-H358 cells harboring KRAS G12C mutant assessed as late apoptotic cells at 2.5 uM incubated for 24 hrs by Annexin V-FITC/PI staining based flow cytometric analysis (reference value: 28.2%); assay type: functional
[10] = tested on: NCI-H358; test: Induction of apoptosis in human NCI-H358 cells harboring KRAS G12C mutant assessed as viable cells at 10 uM incubated for 24 hrs by Annexin V-FITC/PI staining based flow cytometric analysis (reference value: 67.2%); assay type: functional; details: NCI-H358, 24 h, read-out: Activity
[11] = tested on: NCI-H358; test: Induction of apoptosis in human NCI-H358 cells harboring KRAS G12C mutant assessed as early apoptotic cells at 10 uM incubated for 24 hrs by Annexin V-FITC/PI staining based flow cytometric analysis (reference value: 4.34%); assay type: functional
[12] = tested on: NCI-H358; test: Induction of apoptosis in human NCI-H358 cells harboring KRAS G12C mutant assessed as late apoptotic cells at 10 uM incubated for 24 hrs by Annexin V-FITC/PI staining based flow cytometric analysis (reference value: 28.2%); assay type: functional
[13] = tested on: NCI-H358; test: Induction of apoptosis in human NCI-H358 cells harboring KRAS G12C mutant assessed as necrotic cells at 10 uM incubated for 24 hrs by Annexin V-FITC/PI staining based flow cytometric analysis (reference value: 0.28%); assay type: functional
[14] = tested on: NCI-H358; test: Induction of apoptosis in human NCI-H358 cells harboring KRAS G12C mutant assessed as early apoptotic cells at 20 uM incubated for 24 hrs by Annexin V-FITC/PI staining based flow cytometric analysis (reference value: 4.34%); assay type: functional
[15] = tested on: NCI-H358; test: Induction of apoptosis in human NCI-H358 cells harboring KRAS G12C mutant assessed as late apoptotic cells at 20 uM incubated for 24 hrs by Annexin V-FITC/PI staining based flow cytometric analysis (reference value: 28.2%); assay type: functional
[16] = tested on: NCI-H358; test: Induction of apoptosis in human NCI-H358 cells harboring KRAS G12C mutant assessed as necrotic cells at 20 uM incubated for 24 hrs by Annexin V-FITC/PI staining based flow cytometric analysis (reference value: 0.28%); assay type: functional
[17] = tested on: A549; test: Induction of apoptosis in human A549 cells harboring KRAS G12S mutant assessed as early apoptotic cells at 2.5 uM incubated for 24 hrs by Annexin V-FITC/PI staining based flow cytometric analysis (reference value: 6.09%); assay type: functional
[18] = tested on: A549; test: Induction of apoptosis in human A549 cells harboring KRAS G12S mutant assessed as viable cells at 10 uM incubated for 24 hrs by Annexin V-FITC/PI staining based flow cytometric analysis (reference value: 68.3%); assay type: functional; details: A549, 24 h, read-out: Activity
[19] = tested on: A549; test: Induction of apoptosis in human A549 cells harboring KRAS G12S mutant assessed as early apoptotic cells at 10 uM incubated for 24 hrs by Annexin V-FITC/PI staining based flow cytometric analysis (reference value: 6.09%); assay type: functional
[20] = tested on: A549; test: Induction of apoptosis in human A549 cells harboring KRAS G12S mutant assessed as late apoptotic cells at 10 uM incubated for 24 hrs by Annexin V-FITC/PI staining based flow cytometric analysis (reference value: 25.4%); assay type: functional
[21] = tested on: A549; test: Induction of apoptosis in human A549 cells harboring KRAS G12S mutant assessed as necrotic cells at 10 uM incubated for 24 hrs by Annexin V-FITC/PI staining based flow cytometric analysis (reference value: 0.16%); assay type: functional
[22] = tested on: A549; test: Induction of apoptosis in human A549 cells harboring KRAS G12S mutant assessed as viable cells at 20 uM incubated for 24 hrs by Annexin V-FITC/PI staining based flow cytometric analysis (reference value: 68.3%); assay type: functional; details: A549, 24 h, read-out: Activity
[23] = tested on: A549; test: Induction of apoptosis in human A549 cells harboring KRAS G12S mutant assessed as early apoptotic cells at 20 uM incubated for 24 hrs by Annexin V-FITC/PI staining based flow cytometric analysis (reference value: 6.09%); assay type: functional
[24] = tested on: A549; test: Induction of apoptosis in human A549 cells harboring KRAS G12S mutant assessed as late apoptotic cells at 20 uM incubated for 24 hrs by Annexin V-FITC/PI staining based flow cytometric analysis (reference value: 25.4%); assay type: functional
[25] = tested on: A549; test: Induction of apoptosis in human A549 cells harboring KRAS G12S mutant assessed as necrotic cells at 20 uM incubated for 24 hrs by Annexin V-FITC/PI staining based flow cytometric analysis (reference value: 0.16%); assay type: functional
[26] = tested on: NCI-H358; test: Induction of apoptosis in human NCI-H358 cells harboring KRAS G12C mutant assessed as increase in bax protein level at 40 uM incubated for 24 hrs by Western blot analysis; assay type: functional, cell-based
[27] = tested on: NCI-H358; test: Induction of apoptosis in human NCI-H358 cells harboring KRAS G12C mutant assessed as increase in caspase3 protein level at 40 uM incubated for 24 hrs by Western blot analysis; assay type: functional, cell-based
[28] = tested on: NCI-H358; test: Induction of apoptosis in human NCI-H358 cells harboring KRAS G12C mutant assessed as decrease in bcl2 protein level at 40 uM incubated for 24 hrs by Western blot analysis; assay type: functional, cell-based
[29] = tested on: A549; test: Induction of apoptosis in human A549 cells harboring KRAS G12S mutant assessed as increase in caspase3 protein level at 40 uM incubated for 24 hrs by Western blot analysis; assay type: functional, cell-based
[30] = tested on: NCI-H358; test: Induction of cell cycle arrest in human NCI-H358 cells harboring KRAS G12C mutant assessed as accumulation at G2/M phase incubated for 24 hrs by PI staining based flow cytometric analysis; assay type: functional

Sequence of GTPase KRas (P01116 whole entry G12C): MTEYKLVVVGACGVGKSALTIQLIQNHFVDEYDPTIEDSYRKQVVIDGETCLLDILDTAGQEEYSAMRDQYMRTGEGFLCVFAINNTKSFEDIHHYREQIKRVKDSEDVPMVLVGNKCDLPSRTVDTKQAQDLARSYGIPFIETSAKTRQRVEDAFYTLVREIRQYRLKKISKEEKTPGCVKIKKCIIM
Sequence of GTPase KRas (Homo sapiens), P01116 [G12C] (P01116 whole entry G12C): as above

CC[C@H](C)[C@H](NC(=O)CNC(=O)[C@H](Cc1ccccc1)NC(=O)[C@H](Cc1ccccc1)NC(=O)[C@H](CCCNC(=N)N)NC(=O)[C@H](CCCNC(=N)N)NC(C)=O)C(=O)N[C@@]1(C)CCC/C=C\CCC[C@@](C)(C(=O)N[C@@H](CC(C)C)C(=O)N[C@@H](CCCCN)C(=O)N[C@H](C(=O)N[C@@H](CCC(=O)O)C(=O)N[C@@H](CCC(=O)O)C(=O)NCC(=O)N[C@@H](CC(N)=O)C(=O)O)[C@@H](C)O)NC(=O)[C@H](CC(N)=O)NC(=O)[C@H](CC(=O)O)NC(=O)[C@H]([C@@H](C)O)NC(=O)[C@H](CC(C)C)NC(=O)[C@H](CC(=O)O)NC1=O (Ac-RRFFGI[S5]DLTDN[S5]LKTEEGN-OH; staple (Z) 7-13)
Kd [1]: 870 nM | Ka [2]: 7.3 ×10³ /M.s | Activity [3]: Dose-dependent effect | Activity [4]: inactive | Activity [5]: 34.4% | Activity [6]: inactive | Activity [7]: Active | viability at 2.5 µM [8]: 62.7% | Activity [9]: 33% | viability at 10 µM [10]: 52.5% | Activity [11]: 6.37% | Activity [12]: 40.8% | Activity [13]: 0.26% | Activity [14]: 6.49% | Activity [15]: 46.6% | Activity [16]: 0.21% | Activity [17]: 2.65% | viability at 10 µM [18]: 67.6% | Activity [19]: 1.79% | Activity [20]: 30.1% | Activity [21]: 0.5% | viability at 20 µM [22]: 67.3% | Activity [23]: 1.68% | Activity [24]: 30.7% | Activity [25]: 0.33% | Activity [26]: Active | Activity [27]: Active | Activity [28]: Active | Activity [29]: inactive | Activity [30]: Dose-dependent effect
